# Where two headings read alike, the source gives them in different places.
# What was measured:
# Puccinia triticina = assay: Fungicidal activity: wheat brown rust (PUCCRT), disease control on wheat seedlings; assay type: in vivo, Puccinia triticina on wheat plants (variety Yuma); details: for pest or weed control at 100 ppm: high volume application; for pest or weed control at 121.5 g/ha: low volume application, 121.5 g/H
# Experimental: Technical grades of materials were dissolved in acetone, which were then mixed with nine volumes of water (H2O) containing 110 ppm Triton X-100. The fungicide solutions were applied onto wheat seedlings using an automated booth sprayer to run-off. All sprayed plants were allowed to air dry prior to further handling. All fungicides were evaluated using the aforementioned method for their activity vs. all target diseases, unless stated otherwise. Wheat leaf blotch and brown rust activity were also evaluated using track spray applications, in which case the fungicides were formulated as EC formulations, containing 0.1% Trycol 5941 in the spray solutions. Evaluation of Fungicidal Activity: Wheat Brown Rust (Puccinia triticina; Synonym: Puccinia recondita f. Sp. Tritici; Bayer Code PUCCRT) Wheat plants (variety Yuma) were grown from seed in a greenhouse in 50% mineral soil/50% soil-less Metro mix until the first leaf was fully emerged, with 7-10 seedlings per pot. These plants were inoculated with an aqueous spore suspension of Puccinia triticina either prior to or after fungicide treatments. After inoculation the plants were kept in a dark dew room at 22° C. with 100% relative humidity overnight to permit spores to germinate and infect the leaf. The plants were then transferred to a greenhouse set at 24° C. for disease to develop. Fungicide formulation, application and disease assessment followed the procedures as described in the Example A. The results of the evalution are shown below in Table 4.
# Zymoseptoria tritici = assay: Fungicidal activity: leaf blotch of wheat (SEPTTR), disease control on wheat seedlings; assay type: in vivo, Zymoseptoria tritici on wheat plants (variety Yuma); details: for pest or weed control at 100 ppm: high volume application; for pest or weed control at 121.5 g/ha: low volume application, 121.5 g/H
# Experimental: Evaluation of Fungicidal Activity: Leaf Blotch of Wheat (Zymoseptoria Tritici; Bayer Code […]) Technical grades of materials were dissolved in acetone, which were then mixed with nine volumes of water (H2O) containing 110 ppm Triton X-100. The fungicide solutions were applied onto wheat seedlings using an automated booth sprayer to run-off. All sprayed plants were allowed to air dry prior to further handling. All fungicides were evaluated using the aforementioned method for their activity vs. all target diseases, unless stated otherwise. Wheat leaf blotch and brown rust activity were also evaluated using track spray applications, in which case the fungicides were formulated as EC formulations, containing 0.1% Trycol 5941 in the spray solutions. Wheat plants (variety Yuma) were grown from seed in a greenhouse in 50% mineral soil/50% soil-less Metro mix until the first leaf was fully emerged, with 7-10 seedlings per pot. These plants were inoculated with an aqueous spore suspension of Zymoseptoria tritici either prior to or after fungicide treatments. After inoculation the plants were kept in 100% relative humidity (one day in a dark dew chamber followed by two to three days in a lighted dew chamber at 20° C.) to permit spores to germinate and infect the leaf. The plants were then transferred to a greenhouse set at 20° C. for disease to develop. When disease symptoms were fully expressed on the 1st leaves of untreated plants, infection levels were assessed on a scale of 0 to 100 percent disease severity. Percent disease control was calculated using the ratio of disease severity on treated plants relative to untreated plants.
# [1] = 24 h, 1 day protectant, read-out: PUCCRT 1DP disease control, HV activity at 100 ppm
# [2] = 24 h, 1 day protectant, read-out: SEPTTR 1DP disease control, HV activity at 100 ppm
# [3] = 72 h, 3 day curative, read-out: SEPTTR 3DC disease control, HV activity at 100 ppm
# [4] = 24 h, 1 day protectant, read-out: SEPTTR 1DP disease control, LV activity at 121.5 g/H
# [5] = 72 h, 3 day curative, read-out: PUCCRT 3DC disease control, HV activity at 100 ppm
# [6] = 72 h, 3 day curative, read-out: SEPTTR 3DC disease control, LV activity at 121.5 g/H
# [7] = 24 h, 1 day protectant, read-out: PUCCRT 1DP disease control, LV activity at 121.5 g/H
# [8] = 72 h, 3 day curative, read-out: PUCCRT 3DC disease control, LV activity at 121.5 g/H
SMILES,pest or weed control at 100 ppm (Puccinia triticina; [1]),pest or weed control at 100 ppm (Zymoseptoria tritici; [2]),pest or weed control at 100 ppm (Zymoseptoria tritici; [3]),pest or weed control at 121.5 g/ha (Zymoseptoria tritici; [4]),pest or weed control at 100 ppm (Puccinia triticina; [5]),pest or weed control at 121.5 g/ha (Zymoseptoria tritici; [6]),pest or weed control at 121.5 g/ha (Puccinia triticina; [7]),pest or weed control at 121.5 g/ha (Puccinia triticina; [8])
CCCCC[C@H](OC(=O)[C@H](C)NC(=S)c1nccc(OC)c1O)[C@@H](C)Oc1ccccc1 [Compound 10],≤ 80%,–,–,–,–,–,–,–
COc1ccnc(C(=S)N[C@@H](C)C(=O)O[C@@H](C)[C@H](Oc2ccc(Cl)cc2Cl)c2ccccc2)c1O [Compound 9],> 80%,> 80%,> 80%,–,–,–,–,–
COc1ccnc(C(=S)N[C@@H](C)C(=O)O[C@@H](C)[C@H](Oc2ccc(Cl)cc2)C(C)C)c1O [Compound 17],> 80%,≤ 80%,–,–,–,–,–,–
COc1ccnc(C(=S)N[C@@H](C)C(=O)O[C@H](C)C(c2ccc(F)cc2)c2ccc(F)cc2)c1OC(C)=O [Compound 55],–,–,–,≤ 80%,–,–,–,–
COc1ccnc(C(=S)N[C@@H](C)C(=O)O[C@@H](C)[C@@H](c2ccccc2)c2ccc(F)cc2)c1O [Compound 4],> 80%,> 80%,> 80%,–,–,–,–,–
COc1ccnc(C(=S)N[C@@H](C)C(=O)O[C@@H](C)[C@@H](c2ccc(C)cc2)c2ccc(F)cc2C)c1O [Compound 6],> 80%,> 80%,> 80%,–,≤ 80%,–,–,–
COc1ccc(O[C@@H](C)[C@H](OC(=O)[C@H](C)NC(=S)c2nccc(OC)c2O)C(C)C)cc1 [Compound 11],> 80%,> 80%,≤ 80%,–,> 80%,–,–,–
COc1cc(F)ccc1[C@H](c1ccc(C)cc1)[C@H](C)OC(=O)[C@H](C)NC(=S)c1nccc(OC)c1OC(C)=O [Compound 45],–,–,–,> 80%,–,> 80%,> 80%,> 80%
COc1ccnc(C(=S)N[C@@H](C)C(=O)O[C@@H](C)[C@@H](c2ccc(C)cc2)c2ccc(F)cc2C)c1OC(C)=O [Compound 46],–,–,–,> 80%,–,> 80%,> 80%,> 80%
COc1ccc(C(c2ccc(OC)cc2F)[C@H](C)OC(=O)[C@H](C)NC(=S)c2nccc(OC)c2OC(C)=O)c(F)c1 [Compound 53],–,–,–,> 80%,–,> 80%,> 80%,≤ 80%
COc1ccnc(C(=S)N[C@@H](C)C(=O)O[C@H](C(C)C)[C@H](C)Oc2ccc(C)cc2)c1O [Compound 1],> 80%,≤ 80%,≤ 80%,–,> 80%,–,–,–
COc1ccnc(C(=S)N[C@@H](C)C(=O)O[C@H](C(C)C)[C@H](C)Oc2ccc(C)cc2)c1OC(C)=O [Compound 56],–,–,–,≤ 80%,–,≤ 80%,> 80%,> 80%
COc1ccnc(C(=S)N[C@H](C)C(=O)O[C@@H](C)C(c2ccc(F)cc2)c2ccc(F)cc2)c1O [Compound 15],–,> 80%,–,–,–,–,–,–
COc1ccnc(C(=S)N[C@@H](C)C(=O)O[C@@H](C)[C@H](Oc2ccc(Cl)cc2Cl)c2ccccc2)c1OC(C)=O [Compound 49],–,–,–,≤ 80%,–,–,≤ 80%,–
COc1ccccc1C(c1ccccc1OC)[C@H](C)OC(=O)[C@H](C)NC(=S)c1nccc(OC)c1OC(C)=O [Compound 54],–,–,–,> 80%,–,> 80%,> 80%,–
COc1ccnc(C(=S)N[C@@H](C)C(=O)O[C@@H](C)C(c2ccc(F)cc2)c2ccc(F)cc2)c1O [Compound 39],≤ 80%,> 80%,> 80%,–,≤ 80%,–,–,–

SMILES,pest or weed control at 100 ppm (Puccinia triticina; [1]),pest or weed control at 100 ppm (Zymoseptoria tritici; [2]),pest or weed control at 100 ppm (Zymoseptoria tritici; [3]),pest or weed control at 121.5 g/ha (Zymoseptoria tritici; [4]),pest or weed control at 100 ppm (Puccinia triticina; [5]),pest or weed control at 121.5 g/ha (Zymoseptoria tritici; [6]),pest or weed control at 121.5 g/ha (Puccinia triticina; [7]),pest or weed control at 121.5 g/ha (Puccinia triticina; [8])
COc1ccnc(C(=S)N[C@@H](C)C(=O)O[C@@H](C)C(c2ccc(C)cc2)c2ccc(C)cc2)c1OC(C)=O [Compound 50],–,–,–,> 80%,–,> 80%,> 80%,> 80%
COc1ccnc(C(=S)N[C@@H](C)C(=O)O[C@@H](C)C(c2ccc(C)cc2C)c2ccc(C)cc2C)c1O [Compound 3],> 80%,> 80%,> 80%,–,–,–,–,–
COc1cc(Cl)ccc1C(c1ccc(Cl)cc1OC)[C@H](C)OC(=O)[C@H](C)NC(=S)c1nccc(OC)c1O [Compound 14],> 80%,> 80%,> 80%,–,≤ 80%,–,–,–
COc1ccc(C(c2ccc(OC)cc2F)[C@H](C)OC(=O)[C@H](C)NC(=S)c2nccc(OC)c2O)c(F)c1 [Compound 5],> 80%,> 80%,> 80%,–,–,–,–,–
COc1cc(Cl)ccc1C(c1ccc(Cl)cc1OC)[C@H](C)OC(=O)[C@H](C)NC(=S)c1nccc(OC)c1OC(C)=O [Compound 52],–,–,–,> 80%,–,> 80%,> 80%,≤ 80%
COc1ccnc(C(=S)N[C@@H](C)C(=O)O[C@@H](C)[C@H](Oc2ccc(Cl)cc2)C(C)C)c1OC(C)=O [Compound 43],–,–,–,> 80%,–,≤ 80%,> 80%,> 80%
CCC[C@H](OC(=O)[C@H](C)NC(=S)c1nccc(OC)c1O)[C@@H](C)Oc1ccccc1 [Compound 34],–,≤ 80%,–,–,–,–,–,–
COc1ccnc(C(=S)N[C@@H](C)C(=O)O[C@H](C(C)C)[C@H](C)Oc2ccccc2)c1O [Compound 19],> 80%,> 80%,–,–,> 80%,–,–,–
C=CC[C@@H](Oc1ccccc1)[C@H](C)OC(=O)[C@H](C)NC(=S)c1nccc(OC)c1O [Compound 16],> 80%,> 80%,≤ 80%,–,> 80%,–,–,–
COc1cc(F)ccc1[C@H](c1ccccc1)[C@H](C)OC(=O)[C@H](C)NC(=S)c1nccc(OC)c1O [Compound 12],> 80%,> 80%,≤ 80%,–,≤ 80%,–,–,–
COc1ccnc(C(=S)N[C@@H](C)C(=O)O[C@@H](C)C(c2ccc(C)cc2)c2ccc(C)cc2)c1O [Compound 20],> 80%,> 80%,> 80%,–,≤ 80%,–,–,–
COc1ccnc(C(=S)N[C@H](C)C(=O)O[C@@H](C)C(c2ccc(F)cc2)c2ccc(F)cc2)c1OC(C)=O [Compound 59],–,–,–,> 80%,–,–,≤ 80%,≤ 80%
COc1ccccc1C(c1ccccc1OC)[C@H](C)OC(=O)[C@H](C)NC(=S)c1nccc(OC)c1O [Compound 13],> 80%,> 80%,> 80%,–,≤ 80%,–,–,–
C=CC[C@@H](Oc1ccccc1)[C@H](C)OC(=O)[C@H](C)NC(=S)c1nccc(OC)c1OC(C)=O [Compound 60],–,–,–,≤ 80%,–,≤ 80%,> 80%,> 80%
COc1ccnc(C(=S)N[C@@H](C)C(=O)O[C@H](CC(C)C)[C@H](C)Oc2ccccc2)c1O [Compound 21],–,≤ 80%,≤ 80%,–,–,–,–,–

# Reference: US10172358B2, “Thiopicolinamide compounds with fungicidal activity” (Dow AgroSciences LLC, priority 2016, dated 2019)
